Laboratory results taken from patent publication US12077503B2, “Substituted cyclic amides and their use as herbicides” (FMC CORPORATION, priority 2015, dated 2024).

Assays:
Format in all cases: in vivo
[1] = system: corn (Zea mays); assay: Test G Post-Emergence Protocol; conditions: Zea mays, post-emergence, 312 h; for plant injury at 15.625 g/ha: 15.625 g ai/ha, evaluated after 13 days (100=total damage to plant; 0=no damage to plant), read-out: Corn damage rating; for plant injury at 62.5 g/ha: 62.5 g ai/ha, read-out: Corn damage rating (100=total damage to plant; 0=no damage to plant); for plant injury at 62.5 g/ha / plant injury at 250 g/ha: evaluated after 13 days; for plant injury at 250 g/ha: 250 g ai/ha, read-out: damage to plant, Corn (100=total damage to plant; 0=no damage to plant)
In short: (§1)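 Foliar application was made 8 days after sowing, using an aqueous spray of the active in acetone/water (50:50) with 0.5% Tween 20, at doses of 15.625, 62.5 or 250 g/ha. Injury was assessed 13 days later, where 100 meant the plant was fully damaged.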

[2] = system: velvetleaf (Abutilon theophrasti); assay: Test G Post-Emergence Protocol; conditions: Abutilon theophrasti, post-emergence, 312 h; for pest or weed control at 15.625 g/ha: 15.625 g ai/ha, evaluated after 13 days (100=total damage to plant; 0=no damage to plant), read-out: Velvetleaf damage rating; for pest or weed control at 62.5 g/ha: 62.5 g ai/ha, read-out: Velvetleaf damage rating (100=total damage to plant; 0=no damage to plant); for pest or weed control at 62.5 g/ha / pest or weed control at 250 g/ha: evaluated after 13 days; for pest or weed control at 250 g/ha: 250 g ai/ha, read-out: damage to plant, Velvetleaf (100=total damage to plant; 0=no damage to plant)
In short: as §1

[3] = system: giant foxtail (Setaria faberi); assay: Test G Post-Emergence Protocol; conditions: Setaria faberi, post-emergence, 312 h; for pest or weed control at 15.625 g/ha: 15.625 g ai/ha, evaluated after 13 days (100=total damage to plant; 0=no damage to plant), read-out: Foxtail, Giant damage rating; for pest or weed control at 62.5 g/ha: 62.5 g ai/ha, read-out: Foxtail, Giant damage rating (100=total damage to plant; 0=no damage to plant); for pest or weed control at 62.5 g/ha / pest or weed control at 250 g/ha: evaluated after 13 days; for pest or weed control at 250 g/ha: 250 g ai/ha, read-out: damage to plant, Foxtail, Giant (100=total damage to plant; 0=no damage to plant)
In short: as §1

[4] = system: barnyardgrass (Echinochloa crus-galli); assay: Test G Post-Emergence Protocol; conditions: Echinochloa crus-galli, post-emergence, 312 h; for pest or weed control at 15.625 g/ha: 15.625 g ai/ha, evaluated after 13 days (100=total damage to plant; 0=no damage to plant), read-out: Barnyardgrass damage rating; for pest or weed control at 62.5 g/ha: 62.5 g ai/ha, read-out: Barnyardgrass damage rating (100=total damage to plant; 0=no damage to plant); for pest or weed control at 62.5 g/ha / pest or weed control at 250 g/ha: evaluated after 13 days; for pest or weed control at 250 g/ha: 250 g ai/ha, read-out: damage to plant, Barnyardgrass (100=total damage to plant; 0=no damage to plant)
In short: as §1

[5] = system: redroot pigweed (Amaranthus retroflexus); assay: Test G Post-Emergence Protocol; conditions: Amaranthus retroflexus, post-emergence, 312 h; for pest or weed control at 15.625 g/ha: 15.625 g ai/ha, evaluated after 13 days (100=total damage to plant; 0=no damage to plant), read-out: Pigweed, Redroot damage rating; for pest or weed control at 62.5 g/ha: 62.5 g ai/ha, read-out: Pigweed, Redroot damage rating (100=total damage to plant; 0=no damage to plant); for pest or weed control at 62.5 g/ha / pest or weed control at 250 g/ha: evaluated after 13 days; for pest or weed control at 250 g/ha: 250 g ai/ha, read-out: damage to plant, Pigweed, Redroot (100=total damage to plant; 0=no damage to plant)
In short: as §1

[6] = system: ivy-leaved morning glory (Ipomoea hederacea); assay: Test G Post-Emergence Protocol; conditions: Ipomoea, post-emergence, 312 h; for pest or weed control at 15.625 g/ha: 15.625 g ai/ha, evaluated after 13 days (100=total damage to plant; 0=no damage to plant), read-out: Morningglory, Ivy-leaved damage rating; for pest or weed control at 62.5 g/ha: 62.5 g ai/ha, read-out: Morningglory, Ivy-leaved damage rating (100=total damage to plant; 0=no damage to plant); for pest or weed control at 62.5 g/ha / pest or weed control at 250 g/ha: evaluated after 13 days; for pest or weed control at 250 g/ha: 250 g ai/ha, read-out: damage to plant, Morningglory, Ivy-leaved (100=total damage to plant; 0=no damage to plant)
In short: as §1

[7] = system: corn (Zea mays); assay: Test G Pre-Emergence Protocol; conditions: Zea mays, pre-emergence, 312 h, evaluated after 13 days; for plant injury at 15.625 g/ha: 15.625 g ai/ha; for plant injury at 15.625 g/ha / plant injury at 250 g/ha: read-out: Corn damage rating (100=total damage to plant; 0=no damage to plant); for plant injury at 62.5 g/ha: 62.5 g ai/ha, 100=total damage to plant, 0=no damage to plant, read-out: plant damage rating, Corn; for plant injury at 250 g/ha: 250 g ai/ha
In short: (§2)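 Pre-emergence spray, 15.625/62.5/250 g/ha, vehicle acetone:water 50:50 + 0.5% Tween 20, applied 1 d after sowing. Glasshouse 24/16° C, 14 h light, 65% RH, watered twice daily. Visual damage rating at 13 d, 0–100 scale.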

[8] = system: velvetleaf (Abutilon theophrasti); assay: Test G Pre-Emergence Protocol; conditions: Abutilon theophrasti, pre-emergence, 312 h, evaluated after 13 days; for pest or weed control at 15.625 g/ha: 15.625 g ai/ha; for pest or weed control at 15.625 g/ha / pest or weed control at 250 g/ha: read-out: Velvetleaf damage rating (100=total damage to plant; 0=no damage to plant); for pest or weed control at 62.5 g/ha: 62.5 g ai/ha, 100=total damage to plant, 0=no damage to plant, read-out: plant damage rating, Velvetleaf; for pest or weed control at 250 g/ha: 250 g ai/ha
In short: as §2

[9] = system: giant foxtail (Setaria faberi); assay: Test G Pre-Emergence Protocol; conditions: Setaria faberi, pre-emergence, 312 h, evaluated after 13 days; for pest or weed control at 15.625 g/ha: 15.625 g ai/ha; for pest or weed control at 15.625 g/ha / pest or weed control at 250 g/ha: read-out: Foxtail, Giant damage rating (100=total damage to plant; 0=no damage to plant); for pest or weed control at 62.5 g/ha: 62.5 g ai/ha, 100=total damage to plant, 0=no damage to plant, read-out: plant damage rating, Foxtail, Giant; for pest or weed control at 250 g/ha: 250 g ai/ha
In short: as §2

[10] = system: barnyardgrass (Echinochloa crus-galli); assay: Test G Pre-Emergence Protocol; conditions: Echinochloa crus-galli, pre-emergence, 312 h, evaluated after 13 days; for pest or weed control at 15.625 g/ha: 15.625 g ai/ha, read-out: Barnyard grass damage rating (100=total damage to plant; 0=no damage to plant); for pest or weed control at 62.5 g/ha: 62.5 g ai/ha, 100=total damage to plant, 0=no damage to plant, read-out: plant damage rating, Barnyardgrass; for pest or weed control at 250 g/ha: 250 g ai/ha, read-out: Barnyardgrass damage rating (100=total damage to plant; 0=no damage to plant)
In short: as §2

[11] = system: redroot pigweed (Amaranthus retroflexus); assay: Test G Pre-Emergence Protocol; conditions: Amaranthus retroflexus, pre-emergence, 312 h, evaluated after 13 days; for pest or weed control at 15.625 g/ha: 15.625 g ai/ha; for pest or weed control at 15.625 g/ha / pest or weed control at 250 g/ha: read-out: Pigweed, Redroot damage rating (100=total damage to plant; 0=no damage to plant); for pest or weed control at 62.5 g/ha: 62.5 g ai/ha, 100=total damage to plant, 0=no damage to plant, read-out: plant damage rating, Pigweed, Redroot; for pest or weed control at 250 g/ha: 250 g ai/ha
In short: as §2

[12] = system: ivy-leaved morning glory (Ipomoea hederacea); assay: Test G Pre-Emergence Protocol; conditions: Ipomoea, pre-emergence, 312 h, evaluated after 13 days; for pest or weed control at 15.625 g/ha: 15.625 g ai/ha, read-out: Morning-glory, Ivy-leaved damage rating (100=total damage to plant; 0=no damage to plant); for pest or weed control at 62.5 g/ha: 62.5 g ai/ha, 100=total damage to plant, 0=no damage to plant, read-out: plant damage rating, Morningglory, Ivy-leaved; for pest or weed control at 250 g/ha: 250 g ai/ha, read-out: Morningglory, Ivy-leaved damage rating (100=total damage to plant; 0=no damage to plant)
In short: as §2

SMILES | plant injury at 15.625 g/ha [1] | plant injury at 62.5 g/ha [1] | plant injury at 250 g/ha [1] | pest or weed control at 15.625 g/ha [2] | pest or weed control at 62.5 g/ha [2] | pest or weed control at 250 g/ha [2] | pest or weed control at 15.625 g/ha [3] | pest or weed control at 62.5 g/ha [3] | pest or weed control at 250 g/ha [3] | pest or weed control at 15.625 g/ha [4] | pest or weed control at 62.5 g/ha [4] | pest or weed control at 250 g/ha [4] | pest or weed control at 15.625 g/ha [5] | pest or weed control at 62.5 g/ha [5] | pest or weed control at 250 g/ha [5] | pest or weed control at 15.625 g/ha [6] | pest or weed control at 62.5 g/ha [6] | pest or weed control at 250 g/ha [6] | plant injury at 15.625 g/ha [7] | plant injury at 62.5 g/ha [7] | further results
CN1C[C@@H](c2ccc(C(F)(F)F)nc2)[C@H](C(=O)Nc2ccccc2S(C)(=O)=O)C1=O (racemic) [Compound 1586] | 0% | 0% | 30% | 0% | 10% | 10% | 0% | 0% | 70% | 0% | 0% | 50% | 0% | 0% | 40% | 0% | 0% | 40% | 0% | 10% | plant injury at 250 g/ha [7]: 30%; pest or weed control at 15.625 g/ha [8]: 0%; pest or weed control at 62.5 g/ha [8]: 0%; pest or weed control at 250 g/ha [8]: 30%; pest or weed control at 15.625 g/ha [9]: 0%; pest or weed control at 62.5 g/ha [9]: 20%; pest or weed control at 250 g/ha [9]: 70%; pest or weed control at 15.625 g/ha [10]: 0%; pest or weed control at 62.5 g/ha [10]: 0%; pest or weed control at 250 g/ha [10]: 90%; pest or weed control at 15.625 g/ha [11]: 0%; pest or weed control at 62.5 g/ha [11]: 40%; pest or weed control at 250 g/ha [11]: 60%; pest or weed control at 15.625 g/ha [12]: 0%; pest or weed control at 62.5 g/ha [12]: 0%; pest or weed control at 250 g/ha [12]: 10%
CN1C[C@H](c2ccc(C(F)(F)F)cc2)[C@@H](C(=O)Nc2cnccc2O)C1=O (racemic) [Compound 1466] | 0% | 10% | 20% | 0% | 0% | 0% | 0% | 10% | 30% | 0% | 0% | 20% | 10% | 30% | 80% | 0% | 10% | 10% | 0% | 0% | plant injury at 250 g/ha [7]: 0%; pest or weed control at 15.625 g/ha [8]: 0%; pest or weed control at 62.5 g/ha [8]: 0%; pest or weed control at 250 g/ha [8]: 0%; pest or weed control at 15.625 g/ha [9]: 0%; pest or weed control at 62.5 g/ha [9]: 0%; pest or weed control at 250 g/ha [9]: 0%; pest or weed control at 15.625 g/ha [10]: 0%; pest or weed control at 62.5 g/ha [10]: 0%; pest or weed control at 250 g/ha [10]: 0%; pest or weed control at 15.625 g/ha [11]: 0%; pest or weed control at 62.5 g/ha [11]: 0%; pest or weed control at 250 g/ha [11]: 0%; pest or weed control at 15.625 g/ha [12]: 0%; pest or weed control at 62.5 g/ha [12]: 0%; pest or weed control at 250 g/ha [12]: 0%
